Assays:
human TRPM8 = target: T1, human TRPM8 (Homo sapiens, UniProt Q7Z2W7); test: Menthol-induced Ca2+ influx in HEK293 cells stably expressing human TRPM8; type: cell-based; conditions: 30 microM menthol-induced Ca2+ influx, read-out: IC50 against TRPM8
T1 construct: expressed in transfected cells; host or cells: HEK293
In short: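 HEK293 cells stably expressing human TRPM8 were loaded with Fluo4-AM for 1 h at room temperature, preincubated 5 min with compound, then challenged with 30 microM menthol. Calcium rise was read by FDSS imaging. IC50 came from 11-point curves using duplicate-well means.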

[1] = Metabolic stability assay: half-life in human liver microsomes (HLM); type: in vitro ADME
Description: Metabolic Stability Assay:
Half-Life in Human Liver Microsomes (HLM)
Test compounds (1 microM) are incubated with 1 mM MgCl2 and 0.78 mg/mL HLM (HL101) or 0.74 mg/mL HLM (Gentest UltraPool 150) or 0.61 mg/mL HLM (XenoTech XTreme 200) in 100 mM potassium phosphate buffer (pH 7.4) at 37° C. on the 96-deep well plate. The reaction mixture is split into two groups, a non-P450 and a P450 groupon necessary. NADPH is only added to the reaction mixture of the P450 group. (NADPH generation system is also used instead of NADPH.) An aliquot of samples of P450 group is collected at 0, 10, 30, and 60 min time point, where 0 min time point indicated the time when NADPH is added into the reaction mixture of P450 group. An aliquot of samples of non-P450 group is collected at −10 and 65 min time point. Collected aliquots are extracted with acetonitrile solution containing an internal standard. The precipitated protein is spun down in centrifuge (2000 rpm, 15 min). The compound concentration in supernatant is measured by LC/MS/MS system.
The half-life value is obtained by plotting the natural logarithm of the peak area ratio of compounds/internal standard versus time. The slope of the line of best fit through the points yield the rate of metabolism (k). This is converted to a half-life value using following equations: Half-life=ln 2/k {Math. 4}

Human HERG = target: T2, Human HERG (Homo sapiens, UniProt Q12809); test: Human dofetilide binding assay; conditions: Human HERG transfected HEK293S cell membranes
T2 construct: expressed in transfected cells; host or cells: HEK293S (membrane homogenate)
T2 sequence (Q12809 whole entry): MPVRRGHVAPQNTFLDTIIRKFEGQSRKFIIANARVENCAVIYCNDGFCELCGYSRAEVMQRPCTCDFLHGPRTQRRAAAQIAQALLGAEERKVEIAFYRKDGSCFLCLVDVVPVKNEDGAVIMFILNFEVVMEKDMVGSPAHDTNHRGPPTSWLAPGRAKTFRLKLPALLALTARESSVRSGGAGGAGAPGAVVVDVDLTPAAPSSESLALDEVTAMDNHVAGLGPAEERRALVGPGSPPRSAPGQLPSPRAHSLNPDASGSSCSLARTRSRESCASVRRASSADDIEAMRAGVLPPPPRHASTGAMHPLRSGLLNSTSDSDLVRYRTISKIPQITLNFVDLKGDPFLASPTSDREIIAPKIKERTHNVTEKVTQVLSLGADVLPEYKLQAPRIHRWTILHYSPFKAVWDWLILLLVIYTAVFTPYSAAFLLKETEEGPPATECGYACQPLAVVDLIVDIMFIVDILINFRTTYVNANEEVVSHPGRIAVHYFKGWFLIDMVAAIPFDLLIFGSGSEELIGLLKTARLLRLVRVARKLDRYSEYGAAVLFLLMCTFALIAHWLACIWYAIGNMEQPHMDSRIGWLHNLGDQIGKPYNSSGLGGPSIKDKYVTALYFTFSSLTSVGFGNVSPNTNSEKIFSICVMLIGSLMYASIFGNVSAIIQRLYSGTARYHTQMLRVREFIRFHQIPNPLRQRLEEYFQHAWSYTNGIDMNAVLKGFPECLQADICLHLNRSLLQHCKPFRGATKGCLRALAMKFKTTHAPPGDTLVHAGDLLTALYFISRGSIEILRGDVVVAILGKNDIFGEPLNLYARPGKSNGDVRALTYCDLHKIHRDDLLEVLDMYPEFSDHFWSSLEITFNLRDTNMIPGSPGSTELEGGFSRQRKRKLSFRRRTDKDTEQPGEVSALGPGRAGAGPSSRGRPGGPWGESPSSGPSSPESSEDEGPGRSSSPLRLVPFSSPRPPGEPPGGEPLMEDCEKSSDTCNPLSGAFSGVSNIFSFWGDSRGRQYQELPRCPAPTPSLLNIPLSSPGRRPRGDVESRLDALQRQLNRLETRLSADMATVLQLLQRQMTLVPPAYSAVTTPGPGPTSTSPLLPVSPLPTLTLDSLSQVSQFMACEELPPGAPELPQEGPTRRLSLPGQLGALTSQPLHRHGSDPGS
Description: Human Dofetilide Binding Assay
Human HERG transfected HEK293S cells are prepared and grown in-house. The collected cells are suspended in 50 mM Tris-HCl (pH 7.4 at 4° C.) and homogenized using a hand held Polytron PT 1200 disruptor set at full power for 20 sec on ice. The homogenates are centrifuged at 48,000×g at 4° C. for 20 min. The pellets are then resuspended, homogenized, and centrifuged once more in the same manner. The final pellets are resuspended in an appropriate volume of 50 mM Tris-HCl, 10 mM KCl, 1 mM MgCl2 (pH 7.4 at 4° C.), homogenized, aliquoted and stored at −80° C. until use. An aliquot of membrane fractions is used for protein concentration determination using BCA protein assay kit (PIERCE) and ARVOsx plate reader (Wallac). Binding assays are conducted in a total volume of 30 microL in 384-well plates. The activity is measured by PHERAstar (BMG LABTECH) using fluorescence polarization technology. Ten microL of test compounds are incubated with 10 microL of fluorescence ligand (6 nM Cy3B tagged dofetilide derivative) and 10 microL of membrane homogenate (6 microgram protein) for 120 minutes at room temperature. Nonspecific binding is determined by 10 microM E4031 at the final concentration.

T1 sequence (Q7Z2W7 whole entry): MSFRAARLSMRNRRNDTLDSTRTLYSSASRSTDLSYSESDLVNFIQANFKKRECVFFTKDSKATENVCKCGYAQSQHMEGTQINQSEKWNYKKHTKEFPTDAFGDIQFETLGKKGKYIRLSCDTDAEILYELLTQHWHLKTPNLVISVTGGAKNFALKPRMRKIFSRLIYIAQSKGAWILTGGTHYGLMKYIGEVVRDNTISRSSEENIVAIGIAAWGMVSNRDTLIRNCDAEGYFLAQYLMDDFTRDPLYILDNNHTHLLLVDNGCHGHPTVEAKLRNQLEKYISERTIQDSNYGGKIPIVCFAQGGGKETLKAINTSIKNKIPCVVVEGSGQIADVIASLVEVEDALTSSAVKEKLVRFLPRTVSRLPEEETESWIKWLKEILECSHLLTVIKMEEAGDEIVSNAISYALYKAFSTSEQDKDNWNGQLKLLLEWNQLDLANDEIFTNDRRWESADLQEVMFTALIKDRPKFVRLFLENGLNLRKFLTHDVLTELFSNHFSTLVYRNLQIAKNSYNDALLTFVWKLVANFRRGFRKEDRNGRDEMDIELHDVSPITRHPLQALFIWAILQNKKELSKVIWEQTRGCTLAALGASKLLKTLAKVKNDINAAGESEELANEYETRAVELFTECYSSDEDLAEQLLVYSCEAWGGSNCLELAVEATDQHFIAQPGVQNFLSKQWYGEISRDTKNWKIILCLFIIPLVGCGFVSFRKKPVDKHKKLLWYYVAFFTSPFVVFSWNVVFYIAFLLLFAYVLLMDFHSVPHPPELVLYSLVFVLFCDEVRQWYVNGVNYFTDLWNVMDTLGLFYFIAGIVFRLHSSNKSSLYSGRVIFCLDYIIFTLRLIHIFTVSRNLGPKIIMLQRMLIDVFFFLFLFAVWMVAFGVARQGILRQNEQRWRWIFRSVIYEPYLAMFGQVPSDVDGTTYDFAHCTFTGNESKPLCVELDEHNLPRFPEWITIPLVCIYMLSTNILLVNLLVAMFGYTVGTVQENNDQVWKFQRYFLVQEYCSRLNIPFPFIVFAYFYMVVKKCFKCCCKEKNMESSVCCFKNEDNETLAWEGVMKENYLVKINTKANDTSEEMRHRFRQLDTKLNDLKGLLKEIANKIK

Row | SMILES | IC50 (human TRPM8) [nM] | other results
1 | Cc1ccc2[nH]c(=O)n(-c3ccc(C(=O)CN4C(=O)NC5(CCC(F)(F)CC5)C4=O)cc3)c2n1 [Example 23-2, 8,8-difluoro-3-(2-(4-(5-methyl-2-oxo-1H-imidazo[4,5-b]pyridin-3(2H)-yl)phenyl)-2-oxoethyl)-1,3-diazaspiro[4.5]decane-2,4-dione] | < 100 | –
2 | O=C(CN1C(=O)NC2(CCC(F)(F)CC2)C1=O)c1ccc(-n2c(C(F)F)nc3cccnc32)cc1 [Example 24-1] | < 100 | –
3 | CCc1nc2cccnc2n1-c1ccc(C(=O)CN2C(=O)NC3(CCC(F)(F)CC3)C2=O)cc1 [Example 24-2] | < 500 | –
4 | O=C(CN1C(=O)NC2(CCC(F)(F)CC2)C1=O)c1ccc(-n2c(C3CC3)nc3cccnc32)cc1 [Example 24-3] | < 500 | –
5 | COCc1nc2cccnc2n1-c1ccc(C(=O)CN2C(=O)NC3(CCC(F)(F)CC3)C2=O)cc1 [Example 24-4] | < 500 | –
6 | Cc1ccc2nc(C(F)F)n(-c3ccc(C(=O)CN4C(=O)NC5(CCC(F)(F)CC5)C4=O)cc3)c2n1 [Example 24-5] | < 10 | –
7 | O=C(CN1C(=O)NC2(CCC(F)(F)CC2)C1=O)c1ccc(-n2c(C(F)(F)F)nc3cccnc32)cc1 [Example 24-6, 8,8-difluoro-3-(2-oxo-2-(4-(2-(trifluoromethyl)-3H-imidazo[4,5-b]pyridin-3-yl)phenyl)ethyl)-1,3-diazaspiro[4.5]decane-2,4-dione] | < 100 | –
8 | Cc1ccc2nc(C(F)(F)F)n(-c3ccc(C(=O)CN4C(=O)NC5(CCC(F)(F)CC5)C4=O)cc3)c2n1 [Example 24-7, 8,8-difluoro-3-(2-(4-(5-methyl-2-(trifluoromethyl)-3H-imidazo[4,5-b]pyridin-3-yl)phenyl)-2-oxoethyl)-1,3-diazaspiro[4.5]decane-2,4-dione] | < 10 | –
9 | Cc1ccc2nc(CN3CCCCC3)n(-c3ccc(C(=O)CN4C(=O)NC5(CCC(F)(F)CC5)C4=O)cc3)c2n1 [Example 25-3] | < 500 | –
10 | Cc1ccc2nc(CN3CCC3)n(-c3ccc(C(=O)CN4C(=O)NC5(CCC(F)(F)CC5)C4=O)cc3)c2n1 [Example 25-4] | < 500 | –
11 | COc1nc2cccnc2n1-c1ccc(C(=O)CN2C(=O)NC3(CCC(F)(F)CC3)C2=O)cc1 [Example 26-1, 8,8-difluoro-3-(2-(4-(2-methoxy-3H-imidazo[4,5-b]pyridin-3-yl)phenyl)-2-oxoethyl)-1,3-diazaspiro[4.5]decane-2,4-dione] | < 10 | –
12 | Cc1ccc2ncn(-c3ccc(C(=O)CN4C(=O)NC5(CCC(F)(F)CC5)C4=O)cc3)c2n1 [Example 26-2] | < 100 | –
13 | COc1nc2ccc(C)nc2n1-c1ccc(C(=O)CN2C(=O)NC3(CCC(F)(F)CC3)C2=O)cc1 [Example 26-3] | < 10 | –
14 | CCOc1nc2ccc(C)nc2n1-c1ccc(C(=O)CN2C(=O)NC3(CCC(F)(F)CC3)C2=O)cc1 [Example 26-4] | < 100 | –
15 | Cc1nc2ccc(C#N)nc2n1-c1ccc(C(=O)CN2C(=O)NC3(CCC(F)(F)CC3)C2=O)cc1 [Example 27-1, 3-(4-(2-(8,8-difluoro-2,4-dioxo-1,3-diazaspiro[4.5]decan-3-yl)acetyl)phenyl)-2-methyl-3H-imidazo[4,5-b]pyridine-5-carbonitrile] | < 10 | –
16 | O=C(CN1C(=O)NC2(CCC(F)(F)CC2)C1=O)c1ccc(-n2c(CO)nc3cccnc32)cc1 [Example 28-4, 8,8-difluoro-3-(2-(4-(2-(hydroxymethyl)-3H-imidazo[4,5-b]pyridin-3-yl)phenyl)-2-oxoethyl)-1,3-diazaspiro[4.5]decane-2,4-dione] | < 500 | –
17 | Cc1ccc2nc(CO)n(-c3ccc(C(=O)CN4C(=O)NC5(CCC(F)(F)CC5)C4=O)cc3)c2n1 [Example 28-5, 8,8-difluoro-3-(2-(4-(2-(hydroxymethyl)-5-methyl-3H-imidazo[4,5-b]pyridin-3-yl)phenyl)-2-oxoethyl)-1,3-diazaspiro[4,5]decane-2,4-dione] | < 100 | –
18 | CC(C)[C@@H]1CC[C@@H](C)C[C@]12NC(=O)C(CC(=O)c1ccccc1)C2=O (stereo partly drawn) [closest compound] | – | CLint scaled at 1 microM ([1]; human, pH 7.4, read-out: intrinsic clearance (CLint)): > 215 mL/min/kg; half-life at 1 microM ([1]; pH 7.4, 1 microM): < 5 min; IC50 (Human HERG): 19000 nM; Ki (Human HERG): 6500 nM

Reference: patent publication US10093678B2, “Azaspiro derivatives as TRPM8 antagonists” (RaQualia Pharma Inc., priority 2014, dated 2018)
